Here are results for one molecule from US20090076050A1, “SYNERGISTIC TUMOR-KILLING EFFECT OF RADIATION AND BERBERINE COMBINED TREATMENT IN LUNG CANCER” (CHUNG SHAN MEDICAL U., priority 2007, published 2009).

Data set [1] has as its system A549 cells. The protocol:
Cells were cultured in phenol-red-free medium and irradiated with a […] (Varian, 21-EX). The radiation was delivered as a single dose ranging from 2 to 8 Gy in an appropriate field size at a dose rate of 400 cGy/min. A 3-cm polystyrene block was used under the petri dishes during each irradiation to allow homogeneous backscattering radiation. Control cells were removed from the incubator and placed for the same period of time under the IR source but without radiation treatment. In the combined treatment mortality tests, berberine was added 2 h prior to irradiation.
The enhancing effect of berberine on radio-sensitivity in NSCLC was performed by treating A549 with various concentrations of berberine alone or combined with different dose of IR at 37° C. for 24 h or 48 h followed by MTT assay for cell viability analysis. Thereafter, the medium was changed and incubated with 100 μl MTT (Sigma St Louis, Mo.)/well for 4 h, which was solubilized in isopropanol, and measured spectrophotometrically at 563 nm. […] To further ascertain the effect of berberine on the lethality of IR, clonogenic survival assay was performed to examine long term survival. […] After 14 days, colonies were fixed with methanol, stained with 0.25% crystal violet, and counted if they were consisted of more than 50 cells. […]

Data set [2] concerns A549 cells. Briefly: electron microscopic analysis of autophagy. Particulars: IR and 5.0 μM berberine, 24 h. It is filed as cell-based, human. The protocol: Autophagic cell death has been recognized as programmed cell death type II, it has been detected in a variety of cancer cells treated with radiation or chemotherapy. Therefore, it had been examined whether IR treatment combined with berberine induced autophagic cell death in A549 cells by electron microscopic analysis (FIG. 4A). Cells were harvested by trypsinization, and fixed with 2% glutaraldehyde, 4% paraformaldehyde and 1% tannic acid in 0.1 mol/L cacodylate buffer, pH 7.4, for 25 h. The cells were stained with an osmium-thiocarbohydrazide-osmium (OTO). After staining, the cells were dehydrated in a graded series of 70% to 100% EtOH and then immersed serially with 1:1 hexamethyldisilazane and absolute ethanol. […] Autophagy is characterized by the development of AVOs, which is measured by vital staining of acridine orange. […] To quantitate acidic vesicular organelles, Stained cells were collected for the FACScan (Becton Dickinson, San Jose, Calif.) using CellQuest software (Becton Dickinson). Acridine orange-positive cells with bright red fluorescence were detected among A549 cells 24 h after co-treated with berberine and IR (6 Gy), whereas they were sparse among non-treated cells or irradiated cells (FIG. 4B). […]

The nature of data set [3]: blood biochemical analysis in LLC model mice. It is filed as in vivo, C57BL/6 mice. The note with it: all six groups incl. berberine 1.0, 2.0 mg/kg i.p. alone or with IR, end of experiment. The protocol:
The application of the additive cytotoxicity of IR combined with berberine in cancer treatment was further evidenced in an in vivo Lewis lung carcinoma (LLC) model in mice (Camphausen K, et al. Cancer Res 2001; 61:2207-11). Male C57BL/6 mice aged 4-6 weeks (National Taiwan University Animal Center, Taiwan) were used. To form a tumor xenograft, Lewis lung cells (2×10^6) were injected s.c. into the right hind limb. Animals were randomized into six groups: control, irradiation (IR) alone, berberine (1.0, 2.0 mg/kg) alone, and IR combined with berberine (1.0, 2.0 mg/kg). For tumor irradiation, mice were immobilized in a customized harness that exposed the right hind leg while shielding the remainder of the body by 3.5 cm of lead. Mice were exposed to a single dose of 8 Gy. […] To obtain tumor growth curves, three orthogonal tumor diameters were measured every 4-day intervals with a vernier caliper, and the mean values were calculated. […] Primary tumor growth delay was measured by calipers in two dimensions, and the volumes were calculated according to the formula: tumor volume=(width) 2×length×0.52. […] The tumor volume at the primary site of each group was measured before treatment, and the average tumor volume was designated as T0. When the animals were sacrificed at the end of experiment, the xenografts were removed, and the tumor volume was determined and presented as fold of T0. […]

On to `COc1ccc2cc3[n+](cc2c1OC)CCc1cc2c(cc1-3)OCO2` [berberine, Berberine], for which the cell viability entry in data set [1] (IR applied to cells incubated with berberine, 24 h and 48 h, A549 (FIG. 1B)) is recorded as “decreased”. The “combination effect on cell viability” value in data set [1] (berberine combined with 6 Gy IR, 24 h, A549 (FIG. 1A)) is recorded as “conspicuous”. The “autophagic vacuoles by electron microscopy” value in data set [2] was “Numerous empty vacuoles and autophagic vacuoles”. Moreover, the “serum levels of AST, ALT, urea nitrogen, creatinine, complete blood cell counts, triglyceride and total cholesterol” value in data set [3] is reported as “no difference among groups”.
